Four compounds from patent publication US20070232690A1, “Composition for inducing differentiation of leukemic cells and application thereof” (Mackay Memorial Hospital, priority 2006, published 2007) can be followed below.

≈ marks a conversion by molar mass, not a printed value. Marks after values point to notes of the source that are not given here.

Common to all, as to assay type: cell-based, human
Assay [1] concerns HL-60 cells. In words: Assay for differentiation antigens (indirect immunofluorescence, flow cytometry). The conditions noted are these: day 5. As to the method:
An indirect immunofluorescence method was employed in the invention to detect the expression of monocyte-associated antigens on the surface of HL-60 cells after induction of differentiation. 278E-treated cells collected from day 5 cultures were treated with primary monoclonal antibodies, washed with PBS and then exposed to a solution containing […] (FITC) conjugated secondary antibody, goat F(ab′)2 antimouse IgG (Cappel, Cochranville, Pa.). The aforementioned monoclonal antibodies against human monocytes included anti-CD 11b, anti-CD14 (Serotec, Oxford, UK), and anti-CD68 (Dakopatts, Glostrup, Denmark). The percentage of positive cells analyzed with a FACScan flow cytometer (Becton Dickenson, Franklin Lakes, N.J.) and Lysis II software (Becton Dickinson) is shown in Table 2.
Background: Flow cytometry measures light scatter and fluorescence of single cells or particles in a stream.

For assay [2], the system named is HL-60 cells. Description: Assay for superoxide production (NBT reduction). To be noted: 5 days. As to the method:
It has been known that immature blast cells had little superoxide production. The differentiation of cells is further evidenced in changes of superoxide production. Cells collected from example 1 after treatment with 278E for 5 days were collected and resuspended in RPMI 1640 medium at a concentration of 1×10^6 cells/ml and incubated for 30 min at 37° C. with an equal volume of nitroblue tetrazolium test stock solution [containing 2 mg of NBT and 1 μM of phorbol myristate acetate per ml of phosphate buffered saline]. Cells were collected and cytocentrifuged onto a microscope slide using cytospin. Cytospin preparations were counter-stained with 0.5% safranin O. The percentage of formazan-containing cells (based on counting 200 cells) was assessed microscopically.

In assay [3] the test system is HL-60 cells. Description: Assay for cell growth inhibition (Trypan blue dye exclusion). The conditions noted are these: for inhibition at 5 µg/mL: 5 μg/ml. From the text: The human myeloid leukemic cell line HL-60 is known to be induced by several biological agents or chemical drugs to differentiate into mature cells. The results of differentiation can be cell morphological changes, cell chemical changes or functionally mature changes. Therefore, HL-60 cells were often applied in many differentiation studies of leukemic cells. The present invention used the human myeloid leukemic cell line HL-60 (ATCC, Manassas, Va.) to study the cell differentiation inducting ability of 278E.
The HL-60 cells were cultured in RPMI 1640 medium containing 10% fetal bovine serum and maintained in an exponential growth state. For assay of cytotoxicity, cells were incubated at an initial concentration of 1×10^5 cells/ml in the presence of various concentrations of 278E compounds (1-6 μg/ml) for 1-5 days.

Assay [4] relates to HL-60 cells. In words: Induction of monocytic differentiation by various combination treatments.
In assay [5] the test system is c-myc, c-fms, c-fos and c-jun in HL-60 cells. Description: Expression of proto-oncogenes (RNA blot). As to the method:
Total RNA was isolated from HL-60 cells using an RNAzol B kit (Biotecx, Galveston, Tex.) and quantified spectrophotometrically. Total cellular RNA (20 μg) from control or 278E-treated cells was electrophoresed on a 1.2% agarose gel and transferred to a nylon membrane. The blots were probed with radiolabeled cDNA of c-myc, c-fms, c-fos and c-jun. Glyceraldehyde-3-phosphate dehydrogenase (G3PDH) was used as an internal control.

The subject of assay [6] is HL-60 cells. In words: Maturation profiles (morphology, Wright's stain). As for the experimental part:
After 5 days of treatments (1-5 μg/ml of 278E) as described in Example 1, HL-60 cells were collected and cytocentrifuged onto a microscope slide using a Cytospin, stained with Wright's stain and observed under an inverted microscope (Olympus) with a magnification of 1000×. Based on morphology, the cells were classified as: (1) immature blasts, (2) intermediates, or (3) mature monocytes or macrophages, and the ratio was counted respectively.

For assay [7], the system named is HL-60 cells. Description: Induction of monocytic differentiation by various combination treatments. As for the experimental part:
After 5 days of treatments (1-5 μg/ml of […]) as described in Example 1, HL-60 cells were collected and cytocentrifuged onto a microscope slide using a Cytospin, stained with Wright's stain and observed under an inverted microscope (Olympus) with a magnification of 1000×. Based on morphology, the cells were classified as: […] These combination treatments included: […]
The source holds these as a separate data set.

What is called inhibition is the share of the control response that was lost under treatment. Read a low inhibition as little suppression. For the compound `COc1cc(-c2oc3c(OC)cc(CCCO)cc3c2CO)ccc1Oc1ccccc1` [278E], the “Positive cells (%) CD11b” value with HL-60 cells [1] (1 μg/ml) is on record as 1.8 ± 0.5%; in the assay on HL-60 cells [1] (2 μg/ml), 2.6 ± 0.6%; in the assay with HL-60 cells [1] (3 μg/ml), 18.1 ± 6.5 ^a %; in the assay on HL-60 cells [1] (4 μg/ml), 62.1 ± 10.4 ^a %; in the assay on HL-60 cells [1] (5 μg/ml) it was 79.6 ± 9.8 ^a %. Further, the “Positive cells (%) CD14” value is given as 1.5 ± 0.4% in the assay with HL-60 cells [1] (1 μg/ml), 2.1 ± 0.6% in the assay on HL-60 cells [1] (2 μg/ml), 5.8 ± 2.8% in the assay on HL-60 cells [1] (3 μg/ml) and 47.7 ± 10.6 ^a % in the assay on HL-60 cells [1] (4 μg/ml). The “Positive cells (%) CD68” value with HL-60 cells [1] (1 μg/ml) was 1.4 ± 0.4%; in the assay on HL-60 cells [1] (2 μg/ml) it was 1.8 ± 0.4%; in the assay with HL-60 cells [1] (3 μg/ml) it was 5.6 ± 2.1%; with HL-60 cells [1] (4 μg/ml), 34.5 ± 9.9 ^a %; in the assay with HL-60 cells [1] (5 μg/ml), 53.7 ± 10.0 ^a %. Moreover, the “NBT reduction, Positive cells (%)” value with HL-60 cells [2] (1 μg/ml) is reported as 0.3 ± 0.3%; in the assay with HL-60 cells [2] (2 μg/ml), 1.8 ± 1.2%; in the assay on HL-60 cells [2] (3 μg/ml) it was 9.3 ± 2.8%; with HL-60 cells [2] (4 μg/ml), 59.0 ± 12.6 ^a %. Moreover, the “effect on cell viability compared with untreated cells” value with HL-60 cells [3] (1 μg/ml) was “minimal effect”. For the same compound, the inhibition at 5 µg/mL in the assay with HL-60 cells [3] (Homo sapiens, HL-60, 72 h, day 3) came to 85.5 ± 2.8%; in the assay on HL-60 cells [3] (Homo sapiens, HL-60, 120 h, day 5), 91.7 ± 1.7%. The IC50 with HL-60 cells [3] (Homo sapiens, HL-60 cells, viable cell count, 1-6 μg/ml for 1-5 days, read-out: concentration yielding 50% inhibition (IC50)) came out at 3.48 µg/mL (≈ 8.01 µM). The “growth of HL-60 cells” value with HL-60 cells [3] (dose- and time-dependent (FIG. 1)) is reported as “inhibited significantly”. The “monocytes/macrophages (%)” value with HL-60 cells [4] (278E 6 μg/m with H7 15 μM) is listed as 51.3 ± 5.3%; in the assay on HL-60 cells [4] (278E 6 μg/ml alone) it was 56.1 ± 6.2%; with HL-60 cells [4] (278E 6 μg/ml with Staurosporine 10 nM) it was 55.6 ± 4.7%. In addition, the expression of c-myc result in assay [5] (6 μg/ml, 16 hour treatment (FIG. 4A)) is reported as “markedly suppressed”. For the same compound, the expression of c-fms result in assay [5] (after treatment (FIG. 4B)) is reported as “enhanced”. In addition, in assay [5] (after treatment (FIG. 4C)), the expression of c-jun entry is reported as “enhanced”. The expression of c-fos result in assay [5] (after treatment (FIG. 4D)) was “enhanced”. In addition, the cell morphology entry in the assay with HL-60 cells [6] (after 5 days of treatment (FIG. 2B)) is “many cells exhibited changes in characteristics”. The “percentage of mature monocyte/macrophage” value in the assay with HL-60 cells [6] (after 5 days of treatment (FIG. 3), concentration not given) worked out at 82.0±6.3%.
Regarding `CN[C@@H]1C[C@H]2O[C@@](C)([C@@H]1OC)n1c3ccccc3c3c4c(c5c6ccccc6n2c5c31)C(=O)NC4` [Staurosporine], the “monocytes/macrophages (%)” value in the assay with HL-60 cells [7] (Staurosporine 10 nM alone) was 0%.
For `CC1CNCCN1S(=O)(=O)c1cccc2cnccc12` (centres unmarked) [H7], the “monocytes/macrophages (%)” value in the assay on HL-60 cells [7] (H7 15 μM alone) was 0%.
Turning to `CCCCCCCCCCCCCC(=O)O[C@@H]1[C@@H](C)[C@@]2(O)[C@@H](C=C(CO)C[C@]3(O)C(=O)C(C)=C[C@@H]23)[C@H]2C(C)(C)[C@]12OC(C)=O` [TPA], the “differentiation-inducing activity after pretreatment of PKC inhibitor H7 and staurosporine” value in the assay on HL-60 cells [7] (HL-60 cells, Table 3) was “suppressed”. The “monocytes/macrophages (%)” value in the assay on HL-60 cells [7] (TPA 10 ng/ml alone) was determined as 76.8 ± 7.2%; in the assay with HL-60 cells [7] (TPA 10 ng/ml with H7 15 μM) it was 30.2 ± 4.5%; in the assay with HL-60 cells [7] (TPA 10 ng/ml with Staurosporine 10 nM), 35.0 ± 2.3%.
